Source: PMC9511493, “2-(Fluoromethoxy)-4′-(S-methanesulfonimidoyl)-1,1′-biphenyl (UCM-1306), an Orally Bioavailable Positive Allosteric Modulator of the Human Dopamine D1 Receptor for Parkinson’s Disease” (Journal of Medicinal Chemistry, 2022)

What was measured:
human D1R = target: T1, human D1R (Homo sapiens, UniProt P21728); assay: potentiator-mode cAMP assay (HTRF) in SK-N-MC neuroblastoma cells endogenously expressing human D1R; type: cell-based; conditions: for potentiation of DA effect at different fixed concentrations: 3: 0.1–10 μM, 26: 1, 5 and 10 μM; for cAMP response in the absence of DA (agonist activity): no DA
T1 construct: endogenously expressed human D1R in the SK-N-MC cell line (ATCC); host or cells: SK-N-MC human neuroblastoma cells

human D3R = target: T2, human D3R (Homo sapiens, UniProt P35462); assay: PatHunter beta-arrestin assay at human D3R; type: cell-based; conditions: 10 μM compound
T2 construct: host or cells: cells supplied with the PatHunter Beta-arrestin eXpress GPCR assay kit
Method: (§1) Functional studies at both human D3 and D4 receptors were carried out in human D3 and D4 receptors, using a PatHunter Beta-arrestin eXpress GPCR assay kit from DiscoverX. Briefly, cells were plated and maintained for 48 h at 37 °C in a 5% CO2 atmosphere in cell plating reagent provided in the kit. After this time, test compounds were added to the cells and incubated for 30 min at 37 °C. Dopamine was added to the cells and incubated for an additional 90 min at 37 °C. Cells were then treated with the working detection solution provided with the kit for 1 h and beta-arrestin translocation was measured by luminescence detection (integration time = 500 ms) in a Tecan M1000 Genius Pro reader. Data were normalized to dopamine maximum effect and fitted to a 4-parameter logistic equation using Prism v2.1 software (GraphPad Inc).

mouse D1R = target: T3, mouse D1R (Mus musculus, UniProt Q61616); assay: potentiator-mode cAMP assay in mouse CAD neuroblastoma cell line; type: cell-based; conditions: mouse CAD neuroblastoma cells
T3 construct: human SK-N-MC and mouse CAD neuroblastoma cell lines; endogenous in cells; host or cells: mouse CAD neuroblastoma cell line
Method: In order to ascertain if this allosteric potentiation was due to a modulation on DA affinity, radioligand binding assays in the presence of DA IC50 (4 μM) were carried out.
Compound 26 was tested in the potentiator-mode cAMP assay at different fixed concentrations (1, 5, and 10 μM). […] Therefore, it should have negligible direct activating effects on the human D1R in the absence of the endogenous ligand.
Figure 3 (A) Concentration–response curves in human D1R for cAMP production of DA alone (black) and in the presence of different concentrations of compound 26. (B) Concentration–response curves in human D1R of DA (black), 10 μM 26 for 10 min (red), and 10 μM 26 for 10 min then washing with assay buffer (blue). (C) Concentration–response curves in mouse D1R of DA alone (black) and in the presence of 10 μM 26 (red). (D) Concentration–response curve in human D1R of compound 26 in the presence of DA EC70 concentration. (E) Concentration–response curves in human D1R of DA (black) and compound 26 (red). (F) Concentration–response curves in human D1R of DA (red), after preincubation for 1 h with 10 μM DA (black), with 10 μM 26 (green), and with both 10 μM DA and 10 μM 26 (blue).

human D5R = target: T4, human D5R (Homo sapiens, UniProt P21918); assay: cAMP Hunter eXpress DRD5 assay at human D5R; type: cell-based; conditions: 10 μM compound
T4 construct: host or cells: cells supplied with the cAMP Hunter eXpress DRD5 assay kit
Method: Functional studies at human D5R receptors were carried out in human D5R, using a cAMP Hunter eXpress DRD5 assay kit from DiscoverX. Briefly, cells were plated and maintained for 24 h at 37 °C in a 5% CO2 atmosphere in the cell plating reagent provided in the kit. After this time, test compounds were added to the cells and incubated for 15 min at 37 °C, followed by treatment with dopamine and incubation for an additional 30 min at 37 °C. Cells were then treated with the cAMP working detection solution provided with the kit for 1 h, and then cAMP solution A was added and incubated for 3 h at rt. cAMP formation was measured by luminescence detection (integration time = 500 ms) in a Tecan M1000 Genius Pro reader. Data were normalized to dopamine maximum effect and fitted to a 4-parameter logistic equation using Prism v2.1 software (GraphPad Inc).

human D4R = target: T5, human D4R (Homo sapiens, UniProt P21917); assay: PatHunter beta-arrestin assay at human D4R; type: cell-based; conditions: 10 μM compound
T5 construct: host or cells: cells supplied with the PatHunter Beta-arrestin eXpress GPCR assay kit
T5 sequence (P21917 1-419): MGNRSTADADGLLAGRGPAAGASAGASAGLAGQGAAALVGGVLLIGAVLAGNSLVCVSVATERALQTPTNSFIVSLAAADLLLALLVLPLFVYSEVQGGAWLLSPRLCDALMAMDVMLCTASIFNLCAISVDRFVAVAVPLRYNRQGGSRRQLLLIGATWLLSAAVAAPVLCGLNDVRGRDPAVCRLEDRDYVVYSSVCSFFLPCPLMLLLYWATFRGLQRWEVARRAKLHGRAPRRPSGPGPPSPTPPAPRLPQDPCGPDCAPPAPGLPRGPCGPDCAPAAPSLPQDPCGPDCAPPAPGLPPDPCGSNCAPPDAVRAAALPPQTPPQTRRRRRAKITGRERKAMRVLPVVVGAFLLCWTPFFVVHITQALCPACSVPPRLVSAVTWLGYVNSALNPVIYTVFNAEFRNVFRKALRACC
Method: as §1

[1] = parallel artificial membrane permeability assay (PAMPA); type: in vitro ADME; conditions: read-out: P
Method: Parallel artificial membrane permeability assay (PAMPA). The assessment of the membrane permeability of selected compounds and reference compounds propranolol and metoprolol was performed in a commercially available 96-well Corning Gentest pre-coated PAMPA plate system (Cultek S.L.U., Spain). Prior to use, the pre-coated PAMPA plate system was warmed to rt for 30 min and 300 μL of 200 μM solution of tested compound in 2% DMSO in PBS were added to the wells in the receiver (donor) plate.
Then, 200 μL of PBS were added to the wells in the filter (acceptor) plate. The filter plate was placed on the receiver plate by slowly lowering the pre-coated PAMPA plate until it sits on the receiver plate. […] The final concentrations of compound in both donor and acceptor wells were analyzed by HPLC-MS using SIM mode, and quantification was estimated by using the peak area integration normalized with an internal standard. Permeability value of the compounds was calculated using the following formula: P (cm/s) = {-ln[1-CA(t)/Ceq]}/[A*(1/VD+1/VA)*t], where A = filter area (0.3 cm2), VD = donor well volume (0.3 mL), VA = acceptor well volume (0.2 mL), t = incubation time (s), CA(t) = compound concentration (μM) in acceptor well at time t, CD(t) = compound concentration (μM) in donor well at time t, and Ceq = […]

T1 sequence (P21728 whole entry): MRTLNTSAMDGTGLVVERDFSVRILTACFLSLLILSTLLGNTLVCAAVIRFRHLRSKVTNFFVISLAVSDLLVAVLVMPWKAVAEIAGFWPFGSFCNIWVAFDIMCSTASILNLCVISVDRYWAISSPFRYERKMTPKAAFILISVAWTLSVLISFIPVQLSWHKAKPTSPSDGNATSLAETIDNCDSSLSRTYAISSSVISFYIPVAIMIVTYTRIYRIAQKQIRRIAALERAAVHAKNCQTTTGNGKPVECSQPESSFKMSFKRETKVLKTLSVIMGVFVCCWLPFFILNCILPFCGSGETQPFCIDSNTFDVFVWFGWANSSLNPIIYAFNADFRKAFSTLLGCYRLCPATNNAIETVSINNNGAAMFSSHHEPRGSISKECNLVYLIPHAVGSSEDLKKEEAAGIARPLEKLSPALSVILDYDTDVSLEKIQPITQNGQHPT
T4 sequence (P21918 whole entry): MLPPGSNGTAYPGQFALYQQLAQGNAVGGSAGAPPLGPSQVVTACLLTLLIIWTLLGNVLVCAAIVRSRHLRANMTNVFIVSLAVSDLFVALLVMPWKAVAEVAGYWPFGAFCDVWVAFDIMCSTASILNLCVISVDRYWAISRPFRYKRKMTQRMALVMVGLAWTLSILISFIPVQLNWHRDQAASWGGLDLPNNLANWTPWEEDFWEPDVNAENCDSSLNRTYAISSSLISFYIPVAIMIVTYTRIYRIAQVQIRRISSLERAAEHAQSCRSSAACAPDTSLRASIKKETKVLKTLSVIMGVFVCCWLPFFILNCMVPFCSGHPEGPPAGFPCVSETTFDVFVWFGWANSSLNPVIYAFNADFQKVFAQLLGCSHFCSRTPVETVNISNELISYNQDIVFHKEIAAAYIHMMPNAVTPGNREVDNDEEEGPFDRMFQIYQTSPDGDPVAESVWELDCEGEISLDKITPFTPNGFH
T2 sequence (P35462 whole entry): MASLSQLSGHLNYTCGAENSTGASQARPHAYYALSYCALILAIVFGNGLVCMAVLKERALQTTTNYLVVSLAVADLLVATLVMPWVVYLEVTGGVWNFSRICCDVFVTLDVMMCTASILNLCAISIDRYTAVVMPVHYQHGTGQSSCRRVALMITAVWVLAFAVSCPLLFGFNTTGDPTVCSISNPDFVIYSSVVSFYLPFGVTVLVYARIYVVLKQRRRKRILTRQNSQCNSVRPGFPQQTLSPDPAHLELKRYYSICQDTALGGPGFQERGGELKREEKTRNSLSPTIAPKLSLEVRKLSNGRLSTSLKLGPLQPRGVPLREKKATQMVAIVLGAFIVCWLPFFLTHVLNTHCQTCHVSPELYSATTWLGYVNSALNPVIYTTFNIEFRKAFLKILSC
T3 sequence (Q61616 whole entry): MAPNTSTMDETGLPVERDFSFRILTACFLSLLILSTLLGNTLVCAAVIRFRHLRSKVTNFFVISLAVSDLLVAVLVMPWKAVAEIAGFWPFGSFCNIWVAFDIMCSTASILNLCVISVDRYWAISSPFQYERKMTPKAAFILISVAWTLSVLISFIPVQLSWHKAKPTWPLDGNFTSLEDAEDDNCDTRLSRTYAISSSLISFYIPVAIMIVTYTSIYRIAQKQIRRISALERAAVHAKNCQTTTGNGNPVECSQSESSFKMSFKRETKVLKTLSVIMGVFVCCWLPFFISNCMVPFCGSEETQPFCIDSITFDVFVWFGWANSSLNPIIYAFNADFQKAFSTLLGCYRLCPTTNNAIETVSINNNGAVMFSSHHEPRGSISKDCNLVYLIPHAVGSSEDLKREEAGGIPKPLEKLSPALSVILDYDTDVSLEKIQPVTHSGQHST

Row | reversibility of the potentiation (human D1R; 10 μM for 10 min then washing with assay buffer) | Compound | potentiation of DA effect at different fixed concentrations (human D1R) | cAMP response in the absence of DA (agonist activity) (human D1R) | enhancement of DA Emax at human D3 receptor (human D3R) | potentiation of DA effect in mouse D1R (mouse D1R) | enhancement of DA Emax at human D5 receptor (human D5R) | enhancement of DA Emax at human D4 receptor (human D4R) | Papp at 5 h, 200 μM [1] | receptor desensitization (human D1R; preincubation for 1 h with 10 μM compound)
1 | – | O=Cc1ccc(-c2ccccc2OCF)cc1 [Compound 3, 2′-(Fluoromethoxy)[1,1′-biphenyl]-4-carbaldehyde] | concentration-dependent potentiation of DA effect | No cAMP response | did not enhance DA Emax | concentration-dependent potentiation of DA effect | did not enhance DA Emax | did not enhance DA Emax | 20 ×10⁻⁶ cm/s | –
2 | reversible effect | CS(=N)(=O)c1ccc(-c2ccccc2OCF)cc1 (stereo not shown) [Compound 26, 2-(Fluoromethoxy)-4′-(S-methanesulfonimidoyl)-1,1′-biphenyl] | potentiation of the DA Emax in a concentration-dependent manner | no cAMP response | subtype selectivity | PAM behavior was also observed | subtype selectivity | subtype selectivity | 24 ×10⁻⁶ cm/s | does not induce receptor desensitization
